From patent US5604206A, “Complexes containing S(+) phenyl alkane acids and amino sugars” (priority 1990, dated 1997)

What was measured:
[1] = Pharmacokinetics after a single oral dose in test persons (Table 1)
Description: (§1) Pharmacokinetic parameters after taking a (single) oral
(§2) ibuprofen active substance) (4 test persons)

[2] = clinical; conditions: human, in vivo, po
Description: as §1, §2

[3] = single oral dose, tablet, 150 mg ibuprofen active substance, 4 test persons, Mean ± SD

## CC(C)Cc1ccc([C@H](C)C(=O)O)cc1.CNC[C@H](O)[C@@H](O)[C@H](O)[C@H](O)CO [Sugar complex, S(+)-ibuprofen-N-methyl-2-deoxy-glucitol]
[1]; 150 mg active substance
  tmax (rapid onset effect): 0.25 to 0.333 h
[1]; [3]
  AUC: 55000 ± 10200 ng·h/mL
  Cmax: 24500 ± 6700 ng/mL
  tlag: 0.1 ± 0.02 h
  tmax: 0.25 ± 0.11 h

## CC(C)Cc1ccc([C@H](C)C(=O)O)cc1 [S(+)-ibuprofen free acid, S(+)-ibuprofen, reference compound]
[1]; [3]
  tlag: 0.50 ± 0.1 h
[2]
  tmax: 2.1 ± 0.2 h
